Results from PubChem BioAssay AID1963439 (Molecular Pharmacology Branch, DTP, NCI, 2024).
Values joined by “and” are separate entries in the source; they are usually repeats but may differ in a detail not shown here. Equal values may be shown once.

Tested on: NCI-H196 complex spheroids with HUVEC/MSC, growth % T/C
Assay: Anticancer human tumor NCI-H196 cell line growth inhibition [Asc];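 also: spheroids exposed to compound for 7 days before measurement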;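 as to viability, T/C: 100% = DMSO vehicle control wells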
Settings: for viability, T/C: stronger effect = lower value
Method in brief: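 Spheroid model: tumor line + HUVEC + hMSC. Single agents and combinations; top conc. at/near clinical Cmax (10 microM if undetermined), half-log dilutions. DMSO stocks at 800-fold test concentration.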

## CNC(C)C(=O)NC1CN(S(=O)(=O)c2cccc(S(=O)(=O)N3CCC4CCC(C(=O)NC(c5ccccc5)c5ccccc5)N4C(=O)C(NC(=O)C(C)NC)C3)c2)CCC2CCC(C(=O)NC(c3ccccc3)c3ccccc3)N2C1=O (stereo not drawn)
Compound 0.00316 µM
  viability, T/C: 38.2% and 43%
Compound 0.01 µM
  viability, T/C: 7.09% [middle of 14 runs]
Compound 0.0316 µM
  viability, T/C: 5.61% [middle of 14 runs]
Compound 0.1 µM
  viability, T/C: 3.73% [middle of 14 runs]
Compound 0.316 µM
  viability, T/C: 3.32% [middle of 13 runs]
Compound 1 µM
  viability, T/C: 2.97% [middle of 14 runs]
Compound alone, run of 10/03/2022
  IC50: < 0.01 µM
Curve of compound
  IC50: < 0.00316 µM

## CCN1CCN(Cc2ccc(Nc3ncc(F)c(-c4cc(F)c5nc(C)n(C(C)C)c5c4)n3)nc2)CC1 + CCN1C(C(=O)NC23CCC(C(=O)O)(CC2)CC3)C(c2cccc(Cl)c2F)C2(C(=O)Nc3cc(Cl)ccc32)C12CCCCC2
Curve of first compound, second compound 0.03 µM
  IC50: > 1 µM
Curve of first compound, second compound 0.0949 µM
  IC50: > 1 µM
Curve of first compound, second compound 0.3 µM
  IC50: > 1 µM
Curve of first compound, second compound 0.949 µM
  IC50: > 1 µM
Curve of first compound, second compound 3 µM
  IC50: > 1 µM
Second compound 0.03 µM, first compound 0.00316 µM
  viability, T/C: 99.9%
Second compound 0.03 µM, first compound 0.01 µM
  viability, T/C: 99.8%
Second compound 0.03 µM, first compound 0.0316 µM
  viability, T/C: 96.1%
Second compound 0.03 µM, first compound 0.1 µM
  viability, T/C: 99.8%
Second compound 0.03 µM, first compound 0.316 µM
  viability, T/C: 116%
Second compound 0.03 µM, first compound 1 µM
  viability, T/C: 124%
Second compound 0.0949 µM, first compound 0.00316 µM
  viability, T/C: 113%
Second compound 0.0949 µM, first compound 0.01 µM
  viability, T/C: 112%
Second compound 0.0949 µM, first compound 0.0316 µM
  viability, T/C: 99.4%
Second compound 0.0949 µM, first compound 0.1 µM
  viability, T/C: 106%
Second compound 0.0949 µM, first compound 0.316 µM
  viability, T/C: 115%
Second compound 0.0949 µM, first compound 1 µM
  viability, T/C: 131%
Second compound 0.3 µM, first compound 0.00316 µM
  viability, T/C: 107%
Second compound 0.3 µM, first compound 0.01 µM
  viability, T/C: 128%
Second compound 0.3 µM, first compound 0.0316 µM
  viability, T/C: 117%
Second compound 0.3 µM, first compound 0.1 µM
  viability, T/C: 114%
Second compound 0.3 µM, first compound 0.316 µM
  viability, T/C: 117%
Second compound 0.3 µM, first compound 1 µM
  viability, T/C: 140%
Second compound 0.949 µM, first compound 0.00316 µM
  viability, T/C: 127%
Second compound 0.949 µM, first compound 0.01 µM
  viability, T/C: 111%
Second compound 0.949 µM, first compound 0.0316 µM
  viability, T/C: 123%
Second compound 0.949 µM, first compound 0.1 µM
  viability, T/C: 113%
Second compound 0.949 µM, first compound 0.316 µM
  viability, T/C: 120%
Second compound 0.949 µM, first compound 1 µM
  viability, T/C: 142%
Second compound 3 µM, first compound 0.00316 µM
  viability, T/C: 129%
Second compound 3 µM, first compound 0.01 µM
  viability, T/C: 123%
Second compound 3 µM, first compound 0.0316 µM
  viability, T/C: 114%
Second compound 3 µM, first compound 0.1 µM
  viability, T/C: 109%
Second compound 3 µM, first compound 0.316 µM
  viability, T/C: 119%
Second compound 3 µM, first compound 1 µM
  viability, T/C: 139%
